Drawing on US20240251792A1, “WEED CONTROL METHOD” (SYNGENTA CROP PROTECTION AG, priority 2021, published 2024), this text covers pest or weed control and plant injury for 5 compounds.

SMILES strings stand for the structures. Where two headings read alike, the source gives them in different places.

Common to all, as to type: in vivo
In one test the test system is ABUTH. In words: Pre-emergence biological efficacy (Table 3). To be noted: Abutilon theophrasti, 312 h, after 13 days, read-out: evaluation (100=total damage to plant; 0=no damage to plant). In a few lines:
(§1)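 Sown pots, 1 d glasshouse (24/19 °C, 16 h light), pre-emergence spray of compound from 50 g/l AMA formulation diluted in 0.2% Genapol X080. Grown at 24/18 °C, 15 h light, 50% humidity, watered twice daily; scored 0–100 damage at 13 d.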

Another test concerns AMARE. Nature of the test: Pre-emergence biological efficacy (Table 3). To be noted: Amaranthus retroflexus, 312 h, 1000 g/ha, after 13 days, read-out: evaluation (100=total damage to plant; 0=no damage to plant). In a few lines: as §1
The next test relates to ECHCG. Nature of the test: Pre-emergence biological efficacy (Table 3). Conditions: Echinochloa crus-galli, 312 h, 1000 g/ha, after 13 days, read-out: evaluation (100=total damage to plant; 0=no damage to plant). In outline: as §1
The subject of another test is IPOHE. Nature of the test: Pre-emergence biological efficacy (Table 3). Conditions: Ipomoea hederacea, 312 h, 1000 g/ha, after 13 days, read-out: evaluation (100=total damage to plant; 0=no damage to plant). In a few lines: as §1
The next test has as its system STEME. In words: Pre-emergence biological efficacy (Table 3). To be noted: 312 h, after 13 days, read-out: evaluation (100=total damage to plant; 0=no damage to plant). In outline:
as §1

Another test concerns ZEAMX. Nature of the test: Pre-emergence biological efficacy (Table 3). Conditions: 312 h, 1000 g/ha, after 13 days, read-out: evaluation (100=total damage to plant; 0=no damage to plant). In a few lines: as §1
The subject of another test is weeds and/or crops. In words: Post-emergence biological efficacy (Table 4). Conditions: 312 h, 1000 g/ha, evaluated after 13 days. In a few lines:
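Weeds and crops were grown 14 days in a glasshouse, then sprayed post-emergence with compound formulated in acetone/F50 and diluted in 0.2% Genapol X080 to the final dose. Damage was scored after 13 days on a 0–100 scale, where 100 is total damage.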

[1] abbreviates: STEME, read-out: damage to plant STEME (100=total damage; 0=no damage).
The mark [2] stands for this setting: ZEAMX, read-out: damage to plant ZEAMX (100=total damage; 0=no damage).
[3] abbreviates: Abutilon theophrasti, ABUTH, read-out: damage to plant ABUTH (100=total damage; 0=no damage).
The mark [4] stands for this setting: Amaranthus retroflexus, AMARE, read-out: damage to plant AMARE (100=total damage; 0=no damage).
The mark [5] stands for this setting: Echinochloa crus-galli, ECHCG, read-out: damage to plant ECHCG (100=total damage; 0=no damage).
Where [6] appears, read: Ipomoea hederacea, IPOHE, read-out: damage to plant IPOHE (100=total damage; 0=no damage).

`O=C(O)C(F)(F)c1cc(Cl)cc([N+](=O)[O-])c1Cl` [Compound 1-238, 2-(2,5-Dichloro-3-nitrophenyl)-2,2-difluoroaceticacid]: the pest or weed control at 1000 g/ha worked out at 0% with ABUTH; 0% in the test on AMARE; 0% in the test with ECHCG; 0% in the test with IPOHE; 0% with STEME; 40% in the test on weeds and/or crops (setting [1]). Also, the pest or weed control at 1000 g/ha in the test with weeds and/or crops (setting [2]) was found to be 0%; with weeds and/or crops (setting [3]), 0%; in the test with weeds and/or crops (setting [4]), 30%; with weeds and/or crops (setting [5]), 0%; in the test with weeds and/or crops (setting [6]) it was 0%. Further, in the test with ZEAMX, the plant injury at 1000 g/ha was 0%.

Consider `Nc1c(Cl)cccc1C(F)(F)C(=O)O` [Compound 1-252, 2-(2-Amino-3-chloro-phenyl)-2,2-difluoro-acetic acid], for which the pest or weed control at 1000 g/ha with ABUTH stood at 90%; with AMARE, 40%; with ECHCG, 0%; in the test with IPOHE it was 50%; in the test with STEME, 10%; with weeds and/or crops (setting [1]), 90%. The pest or weed control at 1000 g/ha in the test on weeds and/or crops (setting [2]) is 10%; in the test on weeds and/or crops (setting [3]) it was 80%; in the test on weeds and/or crops (setting [4]), 20%; in the test with weeds and/or crops (setting [5]) it was 0%; in the test with weeds and/or crops (setting [6]), 70%. For the same compound, in the test on ZEAMX, the plant injury at 1000 g/ha came out at 0%.

For the compound `Nc1c(Cl)ccc(Cl)c1C(F)(F)C(=O)O` [Compound 7-254, 2-(2-amino-3,6-dichlorophenyl)-2,2-difluoroacetic acid], the pest or weed control at 1000 g/ha stood at 40% in the test on ABUTH; 20% in the test on AMARE; 0% with ECHCG; 10% with IPOHE; 30% in the test on STEME; 60% in the test on weeds and/or crops (setting [1]). For the same compound, the pest or weed control at 1000 g/ha was found to be 20% in the test with weeds and/or crops (setting [2]); 30% with weeds and/or crops (setting [3]); 50% with weeds and/or crops (setting [4]); 0% in the test with weeds and/or crops (setting [5]); 30% with weeds and/or crops (setting [6]). Besides, the plant injury at 1000 g/ha with ZEAMX is 10%.

Regarding `COc1c(F)cccc1C(F)(F)C(=O)O` [Compound 1-306, 2,2-Difluoro-2-(3-fluoro-2-methoxy-phenyl)acetic acid], the pest or weed control at 1000 g/ha in the test with ABUTH amounted to 20%; in the test on AMARE it was 30%; in the test with ECHCG it was 10%; with IPOHE it was 60%; in the test on STEME, 10%; with weeds and/or crops (setting [1]), 0%. Besides, the pest or weed control at 1000 g/ha was determined as 10% in the test with weeds and/or crops (setting [2]), 70% with weeds and/or crops (setting [4]), 0% in the test with weeds and/or crops (setting [5]) and 60% in the test with weeds and/or crops (setting [6]). The plant injury at 1000 g/ha in the test on ZEAMX came to 0%.

Consider `N#Cc1c(Cl)cccc1C(F)(F)C(=O)O` [Compound 1-262, 2-(3-Chloro-2-cyano-phenyl)-2,2-difluoro-acetic acid], for which the pest or weed control at 1000 g/ha in the test on ABUTH came out at 90%; in the test with AMARE, 90%; in the test on ECHCG, 0%; in the test on IPOHE, 90%; in the test on STEME, 100%; with weeds and/or crops (setting [1]) it was 100%. Also, the pest or weed control at 1000 g/ha in the test with weeds and/or crops (setting [2]) amounted to 20%; in the test with weeds and/or crops (setting [3]) it was 80%; in the test with weeds and/or crops (setting [4]), 90%; in the test on weeds and/or crops (setting [5]) it was 0%; in the test on weeds and/or crops (setting [6]) it was 70%. In the test on ZEAMX, the plant injury at 1000 g/ha worked out at 40%.
